Columns and labels:
B16F10 = experiment: Cloning assay, colony formation in semi solid medium (methylcellulose); format: cell-based, Murine
Method: (§1) Cells were embedded in complete culture medium supplemented with 0,8% methylcellulose (Methocel MC4000, Sigma), seeded in triplicate into 35-mm dishes (Greiner Bio-one Ref 627102, Dominique Dutscher) and incubated at 37 °C in a humidified 5% CO2 atmosphere.
(§2) The number of cells seeded was 1000 cells per dish. After one week (B16F10 cell line) to 3 weeks (NIH 3T3 EF cell line), macroscopic clones were counted.

NIH 3T3 EF = experiment: as above; format: cell-based; settings: in words
Method: as §1, §2

B16F10 tumor = experiment: In vivo tumorigenicity assay, subcutaneous B16F10 tumor growth; set-up: species or system C57BU6 mice
Method: Female 6-8 week-old C57BU6 mice were provided by Harlan (Gannat, France).
Animals were housed in air-conditioned atmosphere, given food and water in standard conditions. One million B16F10 cells in 0.1 ml PBS were injected subcutaneously into the right flank of mice. Seven days after cells inoculation, it was possible to measure tumor volume (day 0). Thereafter, before drug administration, female C57BU6 mice were randomized to form 2 groups. […]
B16F10 tumor development was monitored for 2 weeks. The tumor size was estimated every fourth day by measuring the diameters of the tumors in two perpendicular dimensions using callipers. The volume of tumor (V) was calculated using the formula, V = 2W(U2)2 , where L and W were respectively the length and the width of tumor.
In vivo tumorigenicity assay was studied with harmine. […] In parallel, control mice were treated by one daily oral route administration of the vehicle.

monoamine oxydase = settings: cited from earlier work
F-actin = experiment: Actin dynamics, fluorescence anisotropy assay in tumor cell cytosolic fraction; format: biochemical
Method: Actin dynamics have been quantified in tumor cell cytosolic fraction using the fluorescence anisotropy assay which gains access to rate constant of F-actin elongation (kobs) and steady state concentration of F-actin (Δ mA max).
All reactions were carried out at 22°C and fluorescence anisotropy signal was recovered at 520 nm with excitation at 490 nm in a Beacon 2000 (Panvera). Alexa 488 actin (Molecular Probes) was centrifuged at 35 000 rpm for 2 h at 4°C to sediment residual actin polymers in a Beckman L5-50B ultracentrifuge. […] 80% of the supernatant was withdrawn; the concentration was defined through fluorescence measurements (excitation at 490 nm and signal recovering at 520 nm). The ultracentrifuged actin concentration was calculated using the non ultracentrifuged Alexa 488 actin as a standard. The supernatant was aliquoted, frozen in liquid nitrogen and stored at -80°C.
Before experiment, an aliquot of ultracentrifuged Alexa 488 actin was diluted to a concentration of 1 mg/ml in G buffer (5 mM Tris pH 8.1, 2 mM CaCl2, 0.2 mM DTT, 0.2 mM ATP). 3 µl of diluted Alexa 488 actin was mixed in 168 µl of G buffer and actin monomers anisotropy was measured before the addition of 4 µl of polymerisation buffer (2.5 M KCI, 50 mM MgCl2, 25 mM ATP), 5 µl of G buffer in the presence or in the absence of the chemical molecule and 20 µl cellular extract of normal NIH 3T3 cells or malignant NIH 3T3 EF cells at 2 mg/ml. The final concentration of Alexa 488 actin was 4 nM. The ratio of unlabelled to labelled actin was about 140/4 nM. Measurements were made each 10 sec for 200 sec. Actin monomers anisotropy value was subtracted, yielding the anisotropy enhancement (Δ mA). The data were fitted with the equation Y= Ymax . [1- exp(- K.X)]. The curves start at zero and ascend to Ymax that corresponds to the steady state anisotropy value (Δ mA eq), with a rate constant K. Y is anisotropy values of which monomers anisotropy is substracted and X is the time (Assessment of cellular actin dynamics by measurement of fluorescence anisotropy. Anal Biochem. 2007 Aug 1;367(1):95-103. Epub 2007 Apr 5. Spitz et al.).

human tumor cell lines = settings: cited from earlier work
[1] = test system: cyclin-dependent kinases (CDKs); settings: cited from earlier work
NIH 3T3 EF cells = experiment: Rescue of F-actin network, FITC-phalloidin fluorescence microscopy; format: cell-based; settings: compared with the concentrations used in harmol dimers test
Method: Malignant NIH 3T3 EF cells were seeded onto glass cover slips at a density of 2000 cells per cm^2. The next day, tested molecules were applied to NIH 3T3 EF cells at various non cytotoxic concentrations. Three days later, cells were fixed for 10 min in PBS containing 3.7 % formaldehyde at 4°C before examination with a fluorescence microscope. The formaldehyde solution was neutralized with 50 mM NH4Cl. Permeabilisation was carried out for 4 min with 0.4% Triton X-100 in PBS. Cells were incubated for 1 h at room temperature with blocking buffer (3% bovine serum albumin in PBS) and then for 1 h with FITC-phalloidin (Sigma) which stabilizes structures by inhibiting phosphate release from ADP-Pi-actin filaments and allows visualization of actin filaments by fluorescence microscopy. The cover slips were mounted on microscope slides using a solution of glycerol 50%, DABCO 2.5% in PBS as embedding medium.

[2] = test system: malignant NIH 3T3 EF cells; experiment: Wound healing assay (cell motility); format: cell-based; settings: NIH 3T3 EF cells, 5 µM
Method: Harmol dimers have been tested in a cell motility assay: the behaviour of tumoral cells treated by these dimers was compared with non-treated tumoral cells in a wound healing assay. Wound healing assay was performed to evaluate the effect of tested molecules on motility of malignant NIH 3T3 EF cells and melanoma cell line B16F10. About 100 000-200 000 cells were seeded in a 6-well culture plate and the tested molecule was added 24 hours later. Cells were grown for 3 days to confluence about 90-95% and small scratch-wounds (1 mm width) were made with a pipette tip. Cell debris were removed, then the cultures were incubated in complete medium for 10 h in the presence of the same concentration of the tested molecule. Then, the cells were fixed for 10 min in PBS containing 3.7% formaldehyde at 4°C.

COc1ccc2c(c1)[nH]c1c(C)nccc12 [harmine, reference compound]
concentration at which inhibition of B16F10 colony formation was observed (B16F10): about 1 µM
concentration at which inhibition of NIH 3T3 EF colony formation was observed (NIH 3T3 EF): micromolar concentration
tumoral growth inhibition (B16F10 tumor; daily per os 100 mg/kg (2 x 50 mg/kg) for 15 days): Any tumoral growth inhibition
tumoral growth inhibition (B16F10 tumor; daily per os 200 mg/Kg (2 x 100 mg/kg) for 15 days): Any tumoral growth inhibition
monoamine oxydase inhibition (monoamine oxydase): monoamine oxydase inhibitor
F actin elongation rate constant compared with NIH 3T3 cytosolic fraction (F-actin; NIH 3T3 EF cytosolic fraction, BA016FZ527 at 10 µM, harmine concentration not given): lower
F actin steady state value (Δ mA max), effect in words (F-actin; added to assay medium, NIH 3T3 EF cytosolic fraction or lysate, versus untreated, harmol at 10 µM): increase
F actin elongation rate constant (Kobs), effect in words (F-actin; added to assay medium, NIH 3T3 EF cytosolic fraction, versus untreated): increase
cytotoxicity against human tumor cell lines (human tumor cell lines): strong cytotoxicity
inhibition of cyclin-dependent kinases (CDKs) [1]: selective inhibitor
modification in actin cytoskeleton network (NIH 3T3 EF cells): higher concentrations
inhibition of migration compared with the harmol dimers [2]: lower inhibition of migration
